Measured values: patent US5786358A, “Pyridopyrimidines as nonclassical antifolates” (The Trustees of Princeton University, priority 1996, dated 1998)
Converted amounts (≈) assume the structure as drawn. Counter-ions that a name gives are not always drawn.

Tests used:
CCRF-CEM cell line = test: CCRF-CEM cell growth inhibition; assay type: cell-based; settings: Homo sapiens, read-out: IC50, concentration inhibiting cell growth of a CCRF-CEM cell line by 50% as compared to control
Method: For N-(N-{5-[2-(2-amino-4-hydroxy-5,6,7,8-tetrahydropyrido[2,3-d]pyrimidin-6-yl)-ethyl]thien-2-ylcarbonyl}-L-γ-glutamyl)-D-aspartic acid, the IC50 is 0.100 μg/mL. For N-(N-{5-[2-(2-amino-4-hydroxy-5,6,7,8-tetrahydropyrido[2,3-d]pyrimidin-6-yl)ethyl]thien-2-ylcarbonyl}-L-γ-glutamyl)-D-glutamic acid 1-tert.-butyl-2,2-diethyl ester, the IC50 is 1.0 μg/mL. For N-{5-[2-(2-amino-4-hydroxy-5,6,7,8-tetrahydropyrido[2,3-d]pyrimidin-6-yl)- ethyl]thien-2-ylcarbonyl}-L-homocysteic acid α-methyl ester, the IC50 is 0.200 μg/mL. […] For 2-{5-[2-(2-amino-4-hydroxy-5,6,7,8-tetrahydropyrido[2,3-d]pyrimidin-6-yl)ethyl]thien-2-ylcarbonylamino}-3-(2H-tetrazol-5-yl)propanoic acid diammonium salt the IC50 is >100 μg/mL.

[1] = test system: 6C3HED lymphosarcoma tumor; test: 6C3HED lymphosarcoma tumor growth inhibition in C3H female mice; assay type: in vivo; settings: daily IV bolus injection for 8 days
Method: N-(N-{5-[2-(2-amino-4-hydroxy-5,6,7,8-tetrahydropyrido[2,3 -d]pyrimidin-6-yl)ethyl]thien-2-ylcarbonyl}-L-γ-glutamyl)-D-asparticacid was evaluated against 6C3HED lymphosarcoma tumor in C3H female mice with the compound given daily, IV bolus injection, for 8 days. Compounds were administered in units of mg/kg of body weight. At the end of treatment, tumor weight was estimated using an electronic caliper interfaced to a microcomputer, and average tumor weight was calculated for each dosing level and a control group. Percentage inhibition of tumor growth was calculated as % inhibition of tumor growth according to the expression:
[1-(average tumor weight experimental group/average tumor weight control
Percentage inhibition was not calculated at a particular dosing level if mortality exceeded 20%. Cumulative dose was calculated by multiplying the daily dose by the number of days doses were administered.

[2] = target: T1, human monofunctional GARFT (Homo sapiens, UniProt P22102); test: Ki against human monofunctional GARFT; assay type: biochemical; settings: tight-binding analysis per Henderson; read-out: Ki inhibition constant against human monofunctional GARFT
T1 construct: human monofunctional GARFT
T1 sequence (P22102 810-1010 limits assumed): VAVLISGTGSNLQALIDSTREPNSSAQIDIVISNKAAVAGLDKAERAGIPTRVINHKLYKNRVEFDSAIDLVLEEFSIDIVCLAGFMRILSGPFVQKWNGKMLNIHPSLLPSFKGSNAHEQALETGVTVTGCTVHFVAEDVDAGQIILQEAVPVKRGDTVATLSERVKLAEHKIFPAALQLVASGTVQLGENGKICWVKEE

| IC50 (CCRF-CEM cell line) | Ki [2] | Compound | % inhibition of tumor growth ([1]; 100 mg/kg) | % inhibition of tumor growth ([1]; 200 mg/kg) |
| --- | --- | --- | --- | --- |
| 28.6 µg/mL | – | Nc1nc(O)c2c(n1)NCC(CCc1ccc(C(=O)N[C@@H](Cc3nn[nH]n3)C(=O)O)cc1)C2 (stereo partly shown) [Example 12, 2-{4-[2-(2-Amino-4-hydroxy-5,6,7,8-tetrahydropyrido[2.3-d]pyrimidin-6-yl)ethyl]benzoylamino}-3-(2H-tetrazol-5-yl)propanoic Acid Diammonium Salt] | – | – |
| 0.1 µg/mL (≈ 0.177 µM) | 0.244 nM | Nc1nc(O)c2c(n1)NCC(CCc1ccc(C(=O)N[C@@H](CCC(=O)N[C@H](CC(=O)O)C(=O)O)C(=O)O)s1)C2 (stereo partly shown) [Example 2] | 100% | 100% |
| 0.82 µg/mL (≈ 1.69 µM) | – | Nc1nc(O)c2c(n1)NCC(CCc1ccc(C(=O)N[C@@H](CCS(=O)(=O)O)C(=O)O)s1)C2 (stereo partly drawn) [Example 9, N-{5-[2-(2-Amino-4-hydroxy-5,6,7,8-tetrahydropyrido[2.3-d]pyrimidin-6-yl)-ethyl]thien-2-ylcarbonyl}-L-homocysteic Acid] | – | – |
| 1 µg/mL (≈ 1.45 µM) | 7.7 nM | CCOC(=O)CC[C@@H](NC(=O)CC[C@H](NC(=O)c1ccc(CCC2CNc3nc(N)nc(O)c3C2)s1)C(=O)OC(C)(C)C)C(=O)OCC (stereo partly drawn) [N-(N-{5-[2-(2-amino-4-hydroxy-5,6,7,8-tetrahydropyrido[2,3-d]pyrimidin-6-yl)ethyl]thien-2-ylcarbonyl}-L-γ-glutamyl)-D-glutamic acid 1-tert.-butyl-2,2-diethyl ester] | – | – |
| > 100 µg/mL | 156 nM | Nc1nc(O)c2c(n1)NCC(CCc1ccc(C(=O)NC(Cc3nn[nH]n3)C(=O)O)s1)C2 (stereo not shown) [Example 13] | – | – |
| 1.6 µg/mL (≈ 2.86 µM) | – | Nc1nc(O)c2c(n1)NCC(CCc1ccc(C(=O)N[C@@H](CCC(=O)N[C@H](CC(=O)O)C(=O)O)C(=O)O)cc1)C2 (stereo partly drawn) [Example 1, N-(N-{4-[2-(2-Amino-4-hydroxy-5,6,7,8-tetrahydropyrido[2,3-d]pyrimidin-6-yl)ethyl]benzoyl}-L-γ-glutamyl)-D-aspartic Acid] | – | – |
| 0.2 µg/mL (≈ 0.4 µM) | 3.5 nM | COC(=O)[C@H](CCS(=O)(=O)O)NC(=O)c1ccc(CCC2CNc3nc(N)nc(O)c3C2)s1 (stereo partly shown) [Example 8] | – | – |
